The values below come from US20100022559A1, “BISOXIMES AS FUNGICIDES” (BAYER CROPSCIENCE AG, priority 2006, published 2010).

The data set can be described thus: logP determination by HPLC on a reversed-phase column (C 18), EEC Directive 79/831 Annex V.A8. The format is physicochemical. The conditions noted are these: value marked [b]. The method, then:
The stated logP values were determined in accordance with EEC Directive 79/831 Annex V.A8 by HPLC (high performance liquid chromatography) on a reversed-phase column (C 18). Temperature: 43° C.
For `CC(=NOCCCCCCON=C(c1cccc(C)n1)C1CC1)c1cccc(C)n1` [compound 347], the logP is 4.56^[b].
To `CC(=NOCCCCCCON=C(C)c1ccnc(C)n1)c1cccc(C)n1` [compound 348] belongs 4.51^[b]; to `C=C(CON=C(C)c1cccc(C)n1)CON=C(Cc1ccccc1)c1ncccc1C` [compound 349], 4.82^[b]; to `C=C(CON=C(C)c1cccc(C)n1)CON=C(c1ccccc1)c1ncccc1C` [compound 351], 3.89^[b].
To `C=C(CON=C(C)c1cccc(C)n1)CON=C(C)c1cccc(CC(C)C)n1` [compound 352] belongs 6.03^[b].
To `C=CCCC(=NOCC(=C)CON=C(C)c1cccc(C)n1)c1ncccc1C` [compound 353] belongs 4.56^[b]; to `C=C(CON=C(C)c1cccc(C)n1)CON=C(C)c1cccc(CC)n1` [compound 354], 4.67^[b]; to `C=C(CON=C(C)c1cccc(C)n1)CON=C(CCC)c1cccc(C)n1` [compound 355], 4.87^[b].
In the case of `C=C(CON=C(C)c1cccc(C)n1)CON=C(CC(C)C)c1cccc(C)n1` [compound 356], the logP is 5.52^[b].
To `C=C(CON=C(C)c1cccc(C)n1)CON=C(c1ccccc1)c1cccc(C)n1` [compound 357] belongs 3.65^[b]; to `C=C(CON=C(C)c1cccc(C)n1)CON=C(CC)c1cccc(C)n1` [compound 358], 4.30^[b].
Take `C=C(CON=C(C)c1cccc(C)n1)CON=C(C)c1ccnc(C)n1` [compound 360]: the logP is 3.24^[b].
To `C=C(CON=C(C)c1cncc(C)c1)CON=C(C)c1cccc(C)n1` [compound 361] belongs 2.20^[b]; to `CC(=NOCC(C)(C)CON=C(Cc1ccccc1)c1ncccc1C)c1cccc(C)n1` [compound 363], 5.71^[b]; to `CC(=NOCC(C)(C)CON=C(c1ccccc1)c1ncccc1C)c1cccc(C)n1` [compound 365], 4.51^[b].
To `CC(=NOCC(C)(C)CON=C(CC(C)C)c1ncccc1C)c1cccc(C)n1` [compound 366] belongs 5.97^[b].
To `CC(=NOCC(C)(C)CON=C(c1ncccc1C)C(C)C)c1cccc(C)n1` [compound 368] belongs 4.56^[b].
`CCC(=NOCC(C)(C)CON=C(C)c1cccc(C)n1)c1ncccc1C` [compound 369]: the logP is 4.51^[b].
To `CC(=NOCCCCON=C(C)c1nc(C)c(C)s1)c1cccc(C)n1` [compound 377] belongs 4.62^[b].
Consider `CC(=NOCCCCON=C(C)c1cccc(C)n1)c1ccc2c(c1)OCO2` [compound 378], for which the logP was 4.35^[b].
To `CC(=NOCCCCON=C(C)c1ccccc1Cl)c1cccc(C)n1` [compound 379] belongs 4.85^[b]; to `COc1ccc(C(C)=NOCCCCON=C(C)c2cccc(C)n2)cc1OC` [compound 380], 3.85^[b].
The figure for `CC(=NOCCCCON=C(C)c1cc2ccccc2o1)c1cccc(C)n1` [compound 381] is 4.74^[b]; for `CC(=NOCCCCON=C(C)c1cccc(C)n1)c1ccc(C)nc1` [compound 382] it is 1.90^[b]; for `CC(=NOCCCCON=C(C)c1cccc2ccccc12)c1cccc(C)n1` [compound 383] it is 5.19^[b].
The figure for `CC(=NOCCCCON=C(C)c1cccc(C)n1)c1cccnc1` [compound 384] is 2.18^[b]; for `CC(=NOCCCCON=C(C)c1cccc(C)n1)c1ccccc1` [compound 385] it is 4.68^[b]; for `CC(=NOCCCCCCON=C(C)c1cccc(C)n1)c1cc(C)ccn1` [compound 386] it is 3.94^[b].
On to `CC(=NOCCCCCCON=C(C)c1cccc(C)n1)c1cccc(C(F)(F)F)c1` [compound 387], for which the logP was 6.51^[b].
The figure for `CC(=NOCCCCCCON=C(C)c1cccc(C)n1)c1ccccn1` [compound 388] is 4.41^[b].
The figure for `CC(=NOCCCCCCON=C(C)c1cccc(C)n1)c1ccc2c(c1)OCO2` [compound 390] is 5.42^[b]; for `CC(=NOCCCCCCON=C(C)c1ccccc1Cl)c1cccc(C)n1` [compound 391] it is 5.84^[b].
The figure for `COc1ccc(C(C)=NOCCCCCCON=C(C)c2cccc(C)n2)cc1OC` [compound 392] is 4.91^[b].
Take `CC(=NOCCCCCCON=C(C)c1cc2ccccc2o1)c1cccc(C)n1` [compound 393]: the logP was 5.78^[b].
As for `CC(=NOCCCCCCON=C(C)c1cccc(C)n1)c1ccc(C)nc1` [compound 394], the logP was 2.62^[b].
Consider `CC(=NOCCCCCCON=C(C)c1cccc2ccccc12)c1cccc(C)n1` [compound 395], for which the logP was 6.16^[b].
The figure for `CC(=NOCCCCCCON=C(C)c1cccc(C)n1)c1cccnc1` [compound 396] is 3.15^b].
As to `CC(=NOCCCCCCON=C(C)c1cccc(C)n1)c1ccccc1` [compound 397], the logP is 5.78^[b].
Regarding `C=C(CON=C(C)c1cc(C)ccn1)CON=C(C)c1cccc(C)n1` [compound 398], the logP is 2.76^[b].
As for `C=C(CON=C(C)c1cccc(C(F)(F)F)c1)CON=C(C)c1cccc(C)n1` [compound 399], the logP was 5.36^[b].
To `C=C(CON=C(C)c1ccc2c(c1)OCO2)CON=C(C)c1cccc(C)n1` [compound 401] belongs 4.20^[b]; to `C=C(CON=C(C)c1cccc(C)n1)CON=C(C)c1ccccc1Cl` [compound 402], 4.74^[b]; to `C=C(CON=C(C)c1ccc(OC)c(OC)c1)CON=C(C)c1cccc(C)n1` [compound 403], 3.75^[b].
The figure for `C=C(CON=C(C)c1cccc(C)n1)CON=C(C)c1cc2ccccc2o1` [compound 404] is 4.57^[b]; for `C=C(CON=C(C)c1cccc(C)n1)CON=C(C)c1cccc2ccccc12` [compound 406] it is 5.02^[b]; for `C=C(CON=C(C)c1cccnc1)CON=C(C)c1cccc(C)n1` [compound 407] it is 2.15^[b].
For the molecule `C=C(CON=C(C)c1ccccc1)CON=C(C)c1cccc(C)n1` [compound 408], the logP is 4.51^[b].
The figure for `CC(=NOCC(C)(C)CON=C(C)c1cccc(C)n1)c1cc(C)ccn1` [compound 409] is 3.65^[b]; for `CC(=NOCC(C)(C)CON=C(C)c1cccc(C)n1)c1cccc(C(F)(F)F)c1` [compound 410] it is 6.16^[b]; for `CC(=NOCC(C)(C)CON=C(C)c1nc(C)c(C)s1)c1cccc(C)n1` [compound 411] it is 5.36^[b].
Regarding `CC(=NOCC(C)(C)CON=C(C)c1cccc(C)n1)c1ccc2c(c1)OCO2` [compound 412], the logP was 5.08^[b].
The figure for `CC(=NOCC(C)(C)CON=C(C)c1ccccc1Cl)c1cccc(C)n1` [compound 413] is 5.59^[b]; for `COc1ccc(C(C)=NOCC(C)(C)CON=C(C)c2cccc(C)n2)cc1OC` [compound 414] it is 4.57^[b].
The figure for `COc1ccc(C(C)=NOCC(C)(C)CON=C(C)c2cc3ccccc3o2)cc1OC` [compound 415] is 5.42^[b].
For `CC(=NOCC(C)(C)CON=C(C)c1cccc2ccccc12)c1cccc(C)n1` [compound 417], the logP was 5.90^[b].
